Experimental data reported in US20080274104A1, “Targeting a Secreted Pro-Apoptotic Factor for Cancer Therapeutics” (priority 2005, published 2008).
Several values for one entry are separate records, joined by “and”; a condition that tells them apart may be missing. Identical values can stand only once.

How the values were obtained:
C3H/HeJ mice = assay: C3H/HeJ mouse leukemia model injected with BCR-ABL+ 32D cells; assay type: in vivo; conditions: individual mouse
Protocol: Therefore, the present inventors wanted to determine whether the affects of anti-sense 24p3 expression in leukemia cells would produce the same effects as in the NOD/scid mouse. In these experiments, 10e6 BCR-ABL+32D cells were injected iv into 8-week old C3H/HeJ mice. Leukemia cells expressed either GFP or anti-sense 24p3 RNA or siRNA for 24p3. The GFP expressing leukemia cells induced a vigorous leukemia involving marrow, spleen, blood and liver (Table 2). Expression of anti-sense 24p3 in leukemia cells reduced the level of invasion in marrow and the spleen but not the liver. Importantly, these mice developed a vigorous ascites tumor growth of GFP+ cells, which was not observed in the GFP vector expressing leukemia cells. […]

[1] = system: NGAL expression in SKBr3 cell line; assay: NGAL expression in breast cancer cell line; assay type: cell-based, human
Description: Several breast cancer cell lines were examined for NGAL expression.

suitable targets cells = assay: Apoptosis induction with purified 24p3/NGAL; assay type: cell-based; conditions: GST-bacterial method protein
Description: These findings indicate that the Bcr-Abl oncoprotein in addition to its oncogenic effects also induces secretion of an apoptotic factor (24p3/NGAL) that causes suppression of normal hematopoiesis. […] Detailed structural analysis has shown that NGAL is an iron binding protein, and that the ligand for NGAL is a catecholate-type siderophore (Goetz et al., 2002). Whether the siderophore binding function is related to 24p3/NGAL's ability to induce apoptosis is not known. In specific embodiments, the apoptotic activity of 24p3/NGAL may require either post-translational modification in eukaryotic cells or formation of a complex with one or more factors. […] Local suppression of normal hematopoiesis by 24p3/NGAL secreted by leukemia cells would allow the leukemic clone to more readily compete, survive, infiltrate and proliferate in normal marrow and the spleen tissue environment. […] Thus, as little as one pluripotent stem cell that has acquired BCR-ABL expression by forming the Philadelphia chromosome could survive and compete in the normally active marrow environment because of its ability to secrete a cell death factor (and possibly other factors; Eaves et al., 1998; Olofsson and Olsson, 1980; Olofsson and Olsson, 1980; Skold et al., 1999) to which it is resistant. The ensuing cell death in the surrounding marrow cells would facilitate expansion of the leukemic clone in the normal marrow. […]

siRNA #4: small hairpin RNA against 24p3 driven by H1 promoter, SEQ ID NO:1 (DNA GGCAGCTTTACGATGTACATTCAAGAGATGTACATCGTAAAGCTGCCTTTTTTCCAAT; expressed or natural sequence)
Ascites (C3H/HeJ mice): Yes
Solid tumor (C3H/HeJ mice): Yes
GFP positive cells, Ascites (C3H/HeJ mice; listed as 32Dp210 siRNA): 90% (2×) and 80% and 100% (2×)
GFP positive cells, BM (C3H/HeJ mice; listed as 32Dp210 siRNA): <1% and 5% (3×) and No
GFP positive cells, Liver (C3H/HeJ mice; listed as 32Dp210 siRNA): 20% and 50% and 40% and 10% and 25%
GFP positive cells, PB (C3H/HeJ mice; listed as 32Dp210 siRNA): 50% and <1% and 20%
GFP positive cells, Spleen (C3H/HeJ mice; listed as 32Dp210 siRNA): 5% and 25% and <1% and No and 20%
GFP positive cells, Tumor (C3H/HeJ mice; listed as 32Dp210 siRNA): 40% and 70%
Spleen wt (C3H/HeJ mice; listed as 32Dp210 siRNA): 160 mg and 110 mg and 40 mg and 90 mg and 130 mg

Cc1ccc(S(=O)(=O)/C=C/C#N)cc1 [BAY11-7082]
NGAL expression [1]: strongly inhibited

B1: purified 24p3/NGAL: purified 24p3/NGAL lipocalin protein made by GST-bacterial method (protein, UniProt P11672 21-200, looked up)
Neutrophil …: QDSTQNLIPAPSLLTVPLQPDFRSDQFRGRWYVVGLAGNAVQKKTEGSFTMYSTIYELQENNSYNVTSILVRDQDQGCRYWIRTFVPSSRAGQFTLGNMHRYPQVQSYNVQVATTDYNQFAMVFFRKTSENKQYFKITLYGRTKELSPELKERFTRFAKSLGLKDDNIIFSVPTDQCIDN
apoptosis induction (suitable targets cells): unable to induce apoptosis
